# Experimental data taken from patent US20090082371A1, “Treatment of Viral Disease and Cancer With Nf-kappaB Inhibitors” (priority 2005, published 2009).
# Experiments:
# [1] = test system: VSV-G-enveloped HIV-Luciferase viruses (HIV-1)
# [2] = test system: A431 human epidermoid carcinoma cells; assay: Cancer cell growth, viable cell count by trypan blue exclusion; type: cell-based; conditions: A431, 5 μM; for % inhibition of cell growth: day 6, vs untreated cells; for cell apoptosis: day 6
# Text: (§1) The tested cells include LNCAP human prostate cancer cells, MDA-MB-468 human breast cancer cells, H1299 human lung cancer cells, AGS human gastric cancer cells, HepG2 human liver cancer cells, PANC-1 human pancreatic carcinoma cells, Jurkat human acute T-cell leukemia cells, A431 human epidermoid carcinoma cells, U251 human glioma cells, NBT-II human bladder cancer cells, and Hela human cervical cancer cells.
# [3] = test system: H1299 human lung cancer cells; assay: as above; type: cell-based; conditions: H1299, 5 μM
# Text: as §1
# [4] = test system: Hela human cervical cancer cells; assay: as above; type: cell-based; conditions: for % inhibition of cell growth / inhibition at 5 µM: day 6, vs untreated cells; for inhibition at 5 µM: Homo sapiens, 144 h
# Text: as §1
# [5] = test system: HepG2 human liver cancer cells; assay: as above; type: cell-based; conditions: HepG2, 5 μM
# Text: as §1
# [6] = test system: MDA-MB-468 human breast cancer cells; assay: as above; type: cell-based; conditions: MDA-MB-468, 5 μM
# Text: as §1
# [7] = test system: retrovirus expressing GFP; conditions: 293T cells, tested dosages, two days after infection
# Text: 293T human embryonic kidney cells were infected with the GFP-retrovirus. […] Two days later, the cells were photographed with a digital camera mounted on a microscope. […] Data represent the mean±standard deviation of three independent experiments.
# Two days later, the number of infected cells from two separate experiments was counted.
# [8] = test system: HT29 cells; assay: Cancer cell growth, viable cell count by trypan blue exclusion; type: cell-based; conditions: HT29, 5 μM
# [9] = test system: AGS human gastric cancer cells; assay: as above; type: cell-based; conditions: for inhibition at 5 µM: Homo sapiens, 144 h
# Text: as §1
# [10] = test system: Jurkat human acute T-cell leukemia cells; assay: as above; type: cell-based; conditions: 5 μM
# Text: as §1
# [11] = test system: LNCAP human prostate cancer cells; assay: as above; type: cell-based
# Text: as §1
# [12] = test system: NBT-II human bladder cancer cells; assay: as above; type: cell-based; conditions: for inhibition at 5 µM: Homo sapiens, 144 h
# Text: as §1
# [13] = test system: PANC-1 human pancreatic carcinoma cells; assay: as above; type: cell-based; conditions: PANC-1, 5 μM
# Text: as §1
# [14] = test system: U251 human glioma cells; assay: as above; type: cell-based; conditions: U251, 5 μM; for cell apoptosis: day 6
# Text: as §1
# [15] = test system: cells listed in Table 1; assay: Cancer cell growth, panel of cells listed in Table 1; type: cell-based, human; conditions: 5 μM, day 6, vs untreated cells
# Text: as §1
# [16] = day 6, about 4×10^4 cells at start
# [17] = 5 μM, day 6, about 4×10^4 cells at start
# [18] = 5 μM, day 6, vs untreated cells
# [19] = Homo sapiens, 144 h, day 6, vs untreated cells
structure (smiles),measurement,setting,value
"O=C(/C=C/c1ccc(O)c(O)c1)OCCc1ccccc1 [cape, reference compound]",cell deaths observed,[1],no obvious cell deaths
same,inhibition of HIV-1 viral infection and replication (HIV-1-induced Luciferase activity),[1],showed inhibition
"COc1cc(O)c2c(c1)oc(=O)c1c3cc(O)c(O)cc3oc21 [7-Methoxy-5,11,12-trihydroxy-coumestan]",% inhibition of cell growth,[2],about 51%
same,% inhibition of cell growth,"[3]; day 6, vs untreated cells",~31%
same,% inhibition of cell growth,[4]; 5 μM,~29%
same,% inhibition of cell growth,"[5]; day 6, vs untreated cells",~25%
same,% inhibition of cell growth,"[6]; day 6, vs untreated cells",~10%
Nc1ccc2ncnc(NCCc3ccc(OCc4ccccc4)cc3)c2c1,cell deaths observed,[7],no obvious cell deaths
same,cell deaths observed,[1],no obvious cell deaths
same,inhibition of HIV-1 viral infection and replication (HIV-1-induced Luciferase activity),[1],showed inhibition
C=CCOc1ccc(CCNc2ncnc3ccc(N)cc23)cc1,cell deaths observed,[7],no obvious cell deaths
same,cell deaths observed,[1],no obvious cell deaths
same,inhibition of HIV-1 viral infection and replication (HIV-1-induced Luciferase activity),[1],showed inhibition
Nc1ccc2ncnc(NCCc3ccc(Oc4ccccc4)cc3)c2c1,Treated (cell number × 10^5),[8]; [16],1.9 ± 0.1 × 10^5
same,% inhibition of cell growth,"[8]; day 6, vs untreated cells",50%
same,Treated (cell number × 10^5),[2]; [16],3.2 ± 0.2 × 10^5
same,% inhibition of cell growth,[2],59%
same,Treated (cell number × 10^5),[9]; [17],2.1 ± 0.1 × 10^5
same,% inhibition of cell growth,[9]; [18],10%
same,Treated (cell number × 10^5),[3]; [16],3 ± 0.2 × 10^5
same,% inhibition of cell growth,"[3]; day 6, vs untreated cells",52%
same,Treated (cell number × 10^5),[4]; [17],1.1 ± 0.1 × 10^5
same,% inhibition of cell growth,[4]; 5 μM,70%
same,Treated (cell number × 10^5),[5]; [16],0.8 ± 0.1 × 10^5
same,% inhibition of cell growth,"[5]; day 6, vs untreated cells",80%
same,Treated (cell number × 10^5),[10]; [16],6.3 ± 0.4 × 10^5
same,% inhibition of cell growth,"[10]; day 6, vs untreated cells",28%
same,Treated (cell number × 10^5),[11]; [17],0.7 ± 0.2 × 10^5
same,% inhibition of cell growth,[11]; [18],90%
same,Treated (cell number × 10^5),[6]; [16],5.4 ± 0.1 × 10^5
same,% inhibition of cell growth,"[6]; day 6, vs untreated cells",10%
same,Treated (cell number × 10^5),[12]; [17],2.7 ± 0.1 × 10^5
same,% inhibition of cell growth,[12]; [18],10%
same,Treated (cell number × 10^5),[13]; [16],1.9 ± 0.1 × 10^5
same,% inhibition of cell growth,"[13]; day 6, vs untreated cells",14%
same,Treated (cell number × 10^5),[14]; [16],7.2 ± 0.2 × 10^5
same,% inhibition of cell growth,"[14]; day 6, vs untreated cells",20%
same,"inhibition of cell growth, range over the cancer cells of Table 1",[15],10-90%
same,cell deaths observed,[7],no obvious cell deaths
same,cell deaths observed,[1],no obvious cell deaths
same,inhibition of HIV-1 viral infection and replication (HIV-1-induced Luciferase activity),[1],showed inhibition
Nc1ccc2ncnc(NCCc3ccc(OCc4ccccn4)cc3)c2c1,cell deaths observed,[7],no obvious cell deaths
same,cell deaths observed,[1],no obvious cell deaths
same,inhibition of HIV-1 viral infection and replication (HIV-1-induced Luciferase activity),[1],showed inhibition
"CC1=C(O)C(=O)C=C2C1=CC=C1[C@@]2(C)CC[C@@]2(C)[C@@H]3C[C@](C)(C(=O)O)CC[C@]3(C)CC[C@]12C [celastrol, 3-hydroxy-24-nor-2-oxo-1(10),3,5,7-friedelatetraen-29-oic Acid, reference compound]",cell apoptosis,[10]; day 6,about 90%
same,cell deaths observed,[1],no obvious cell deaths
"Cc1ccc(S(=O)(=O)/C=C/C#N)cc1 [BAY 11-7082, (E)3-[(4-Methylphenyl)sulfonyl]-2-propenenitrile, reference compound]",cell apoptosis,[2],completely cell apoptosis
same,inhibition at 5 µM,"[9]; day 6, vs untreated cells",~90%
same,cell apoptosis,[3]; day 6,completely cell apoptosis
same,inhibition at 5 µM,[4],9 to 12%
same,cell apoptosis,[5]; day 6,completely cell apoptosis
same,cell apoptosis,"[11]; 5 μM, day 6",completely cell apoptosis
same,inhibition at 5 µM,[6]; [19],9 to 12%
same,inhibition at 5 µM,"[12]; day 6, vs untreated cells",9 to 12%
same,cell apoptosis,[13]; day 6,completely cell apoptosis
same,cell apoptosis,[14],completely cell apoptosis
"COc1ccc([C@@]23Oc4cc(OC)cc(OC)c4[C@]2(O)[C@H](O)[C@H](C(=O)N(C)C)[C@H]3c2ccccc2)cc1 [rocaglamide, reference compound]",cell apoptosis,[2],completely cell apoptosis
same,inhibition at 5 µM,"[9]; day 6, vs untreated cells",~50%
same,inhibition at 5 µM,"[3]; Homo sapiens, NCI-H1299, 144 h, day 6, vs untreated cells",~80%
same,inhibition at 5 µM,[4],9 to 40%
same,inhibition at 5 µM,[5]; [19],9 to 40%
same,inhibition at 5 µM,[11]; [19],~70%
same,cell apoptosis,[6]; day 6,completely cell apoptosis
same,inhibition at 5 µM,"[12]; day 6, vs untreated cells",9 to 40%
same,inhibition at 5 µM,[13]; [19],9 to 40%
same,cell apoptosis,[14],completely cell apoptosis
same,cell deaths observed,[1],no obvious cell deaths
same,inhibition of HIV-1 viral infection and replication (HIV-1-induced Luciferase activity),[1],showed inhibition
